Test results: patent US8791144B2, “Substituted N-phenyl-1-(4-Pyridinyl)-1H-pyrazol-3-amines” (Janssen Pharmaceutica NV, priority 2009, dated 2014)

Legend:
hα7-wt nAChR [1] = biological target: T1, hα7-wt nAChR (Homo sapiens, UniProt P36544); test: Ca2+ flux imaging (FDSS): potentiation of the choline response; format: cell-based; conditions: Ca2+ assay as described in D.1; potentiation of choline response, hα7-wt nAChR; read-out: Potency (pEC50) (converted)
Summary of the method: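 Cells expressing human α7-wt nAChR loaded with fluo-4AM (2 μM final) up to 120 min; HBSS/10 mM HEPES/5 mM CaCl2/0.1% BSA buffer. Compound (0.01–30 μM) applied up to 10 min before 100 μM choline; peak fluorescence measured on FDSS relative to choline alone (100%). EC50 from sigmoidal curves.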

hα7-wt nAChR [2] = biological target: T1, hα7-wt nAChR; test: Patch-clamp current recording (whole-cell voltage clamp), potentiation of choline current and PAM type; format: cell-based; set-up: key: Type 0 compounds minimally enhance the effect size of the current elicited by 1 mM choline.; Type 1 compounds enhance the effect size of the current elicited by 1 mM choline but minimally alter the kinetics of the receptor.; Type 2 compounds enhance the effect size of the current elicited by 1 mM choline while reducing the rate and/or the extent of desensitization.; Type 3 compounds enhance the effect size of the current elicited by 1 mM choline. When tested at higher concentrations up to 10 μM they completely inhibit desensitization, in particular a 1 mM choline application of 250 milliseconds.; Type 4 compounds allow for an initial desensitization of the receptor followed by a re-opening of the receptor during agonist application; conditions: hα7-wt nAChR-expressing GH4C1 cells, 1 mM choline
Summary of the method: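 GH4C1 cells stably expressing human wild-type α7 nAChR, whole-cell voltage clamp at −70 mV with rapid application (<100 ms); compound co-applied with 1 mM choline. Peak current potentiation expressed relative to choline-alone response (=100%); compounds reaching ≥200% assigned PAM type 0–4 by current kinetics and desensitization.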

T1 sequence (P36544 23-502): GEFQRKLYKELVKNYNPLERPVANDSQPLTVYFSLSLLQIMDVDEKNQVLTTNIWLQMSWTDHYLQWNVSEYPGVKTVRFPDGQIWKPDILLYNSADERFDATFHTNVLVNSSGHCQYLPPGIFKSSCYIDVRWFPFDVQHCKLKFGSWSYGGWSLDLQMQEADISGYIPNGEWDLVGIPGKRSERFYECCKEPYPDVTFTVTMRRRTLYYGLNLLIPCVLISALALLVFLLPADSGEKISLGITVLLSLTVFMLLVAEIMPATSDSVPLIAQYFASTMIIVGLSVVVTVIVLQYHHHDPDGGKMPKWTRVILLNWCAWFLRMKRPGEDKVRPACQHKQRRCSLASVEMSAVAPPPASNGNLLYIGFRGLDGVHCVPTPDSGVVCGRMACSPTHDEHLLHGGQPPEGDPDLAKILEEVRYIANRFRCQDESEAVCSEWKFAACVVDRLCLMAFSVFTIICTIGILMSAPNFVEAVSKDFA

| EC50 (hα7-wt nAChR [1]) | melting point | SMILES | PAM type (hα7-wt nAChR [2]) |
| --- | --- | --- | --- |
| 389 nM | 228.3 °C | Cc1cc(-n2nc(Nc3cccc(OC(F)(F)F)c3)cc2CC(=O)NC(C)C)ccn1 [Compound 115, N-(1-methylethyl)-1-(2-methyl-4-pyridinyl)-3-[[3-(trifluoromethoxy)phenyl]amino]-1H-pyrazole-5-acetamide] | 1 |
| 245 nM | 229.1 °C | Cc1cc(-n2nc(Nc3cccc(OC(F)(F)F)c3)cc2CC(=O)NC(C)C)cc(C)n1 [Compound 116, 1-(2,6-dimethyl-4-pyridinyl)-N-(1-methylethyl)-3-[[3-(trifluoromethoxy)phenyl]amino]-1H-pyrazole-5-acetamide] | 2 |
| 324 nM | 230.8 °C | Cc1cc(-n2nc(Nc3cccc(OC(F)(F)F)c3)cc2CC(=O)NC2CC2)cc(C)n1 [Compound 118, N-cyclopropyl-1-(2,6-dimethyl-4-pyridinyl)-3-[[3-(trifluoromethoxy)phenyl]amino]-1H-pyrazole-5-acetamide] | 2 |
| 141 nM | 199.4 °C | Cc1cc(-n2nc(Nc3cccc(OC(F)(F)F)c3)cc2CC(=O)NCC2CC2)cc(C)n1 [Compound 120, N-(cyclopropylmethyl)-1-(2,6-dimethyl-4-pyridinyl)-3-[[3-(trifluoromethoxy)phenyl]amino]-1H-pyrazole-5-acetamide] | 2 |

Second part, the compound before the results:

| SMILES | EC50 (hα7-wt nAChR [1]) | melting point | PAM type (hα7-wt nAChR [2]) |
| --- | --- | --- | --- |
| CCNC(=O)Cc1cc(Nc2cccc(OC(F)(F)F)c2)nn1-c1cc(C)nc(C)c1 [Compound 114, 1-(2,6-dimethyl-4-pyridinyl)-N-ethyl-3-[[3-(trifluoromethoxy)phenyl]amino]-1H-pyrazole-5-acetamide] | 309 nM | 224.2 °C | 2 |
| Cc1cc(-n2nc(Nc3cccc(OC(F)(F)F)c3)cc2CC(=O)NC2CC2)ccn1 [Compound 117, N-cyclopropyl-1-(2-methyl-4-pyridinyl)-3-[[3-(trifluoromethoxy)phenyl]amino]-1H-pyrazole-5-acetamide] | 1200 nM | 224.6 °C | 3 |
| Cc1cc(-n2nc(Nc3cccc(OC(F)(F)F)c3)cc2CC(=O)NCC2CC2)ccn1 [Compound 119, N-(cyclopropylmethyl)-1-(2-methyl-4-pyridinyl)-3-[[3-(trifluoromethoxy)phenyl]amino]-1H-pyrazole-5-acetamide] | 324 nM | 191.7 °C | 2 |
| Cc1cc(-n2nc(Nc3cccc(OC(F)(F)F)c3)cc2CC(=O)NC2CCC2)ccn1 [Compound 121, N-cyclobutyl-1-(2-methyl-4-pyridinyl)-3-[[3-(trifluoromethoxy)phenyl]amino]-1H-pyrazole-5-acetamide] | 417 nM | 227.7 °C | 2 |
